Measurements taken from patent US12384751B2, “Allosteric activators of the ALPHA1A-adrenergic receptor” (The Cleveland Clinic Foundation, priority 2019, dated 2025).
Entries after “also recorded” stand apart in the source; their conditions may differ. Read-outs that look alike come from different tables or passages of the source.

Columns and labels:
[1] = tested on: α2-ARs; assay: Radioligand binding at α2-ARs
Method: Characterization: Binding affinity. Using AR null stably-transfected cell lines that each express only one of the three individual α1-AR subtypes, compounds are characterized for their selectivity for the α1A-AR in radioligand binding studies. To be sure of no cross-reactivity, binding affinity against the α2-ARs and β-ARs are also measured. Details for such procedures are found generally at references 25-26, 94-98, all of which are herein incorporated by reference.

[2] = Body weight of 3×TG AD mice; type: in vivo, mouse; conditions: female 3×TG mice
Method: (§1) AD mice were first randomized and sorted into control or treatment groups. […] 14 AD mice from each treatment group received Compound 3 in the drinking water (2.611 mg/kg/bw) to deliver a daily dose near the peak potentiation of the cAMP response in the brain at 10^−8M based upon the PAM assay and pharmacokinetics. This was achieved by adding Compound 3 to the drinking water at 32 uM, assuming the mice drink 6 ml/day, with only 10% of bioavailable drug reaching the brain. The drug was administered in the drinking water for 10 months, starting at age 2 months, then subjected to either different cognitive behavioral tests or electrophysiology at age 12 months to maximize the manifestations of AD symptoms in these mice. Mice are maintained on the drug for the duration of the studies and blinded to the operator.
At 12 months of age mice were subjected to long term potentiation (LTP) (FIG. 25).
It is known that females in the 3×TG AD mouse model have higher penetrance for the disease than males so an increase in body weight may be a general sign of better health. Weight loss and muscle loss are well-known symptoms associated with AD (91-93).

[3] = tested on: 3×TG Alzheimer's Disease (AD) mouse model; assay: Shortened Barnes Maze in 3×TG AD mice; type: in vivo
Method: as §1
Barnes Maze. The Barnes maze is used to assess spatial learning and memory and consists of a white, flat, circular platform elevated above ground with 40 holes, under which one escape box is located. Three visual cues are placed surrounding the maze and their locations in relation to the escape box and remain constant. Two floodlights and four fans above the maze provide aversion. […] At the start of each trial, a mouse is placed in the center of the maze under a holding chamber for 30 seconds. When the chamber is lifted, the mouse is allowed up to 300 seconds to enter the escape box. […] […] The procedure for the memory trials is the same as learning, except the mice are allowed only one attempt to solve the maze each day. Data includes the time to solve, number of errors made, and distance traveled. Errors are defined as when a mouse poked more than three-quarters of its head into any hole other than the appropriate escape hole. Distance traveled is measured using ANY-MAZE software.

[4] = tested on: 3×TG Alzheimer's Disease (AD) mouse model; conditions: in vivo
Method: as §1

[5] = target: T1, α1A-AR (Homo sapiens, UniProt P35348); assay: Competition binding with [125I]HEAT at α1A-AR (Rat-1 fibroblast membranes); design: expressed in transfected cells; host or cells: Rat-1 fibroblast cells
T1 sequence (P35348 1-466): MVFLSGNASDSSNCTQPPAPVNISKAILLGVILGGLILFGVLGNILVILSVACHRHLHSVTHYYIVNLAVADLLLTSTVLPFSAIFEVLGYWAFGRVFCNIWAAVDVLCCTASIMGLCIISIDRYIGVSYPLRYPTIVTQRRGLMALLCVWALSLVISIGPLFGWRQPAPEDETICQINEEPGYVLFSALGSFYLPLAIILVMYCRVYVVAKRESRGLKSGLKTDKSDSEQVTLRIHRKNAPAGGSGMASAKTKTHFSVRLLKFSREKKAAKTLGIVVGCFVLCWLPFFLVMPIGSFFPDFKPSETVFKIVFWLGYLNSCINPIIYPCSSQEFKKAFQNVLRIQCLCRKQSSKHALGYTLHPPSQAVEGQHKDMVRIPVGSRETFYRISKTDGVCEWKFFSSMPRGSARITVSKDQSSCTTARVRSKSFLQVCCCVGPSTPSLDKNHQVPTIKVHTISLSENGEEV
Method: Competition binding assays: […] Assays were performed in duplicate in HEM buffer, in a total assay volume of 1000 μl. […] The above conditions will convert all the conformations of the receptor into a single low affinity site. To show both high and low affinity sites of the receptor (typically seen with GPCR agonists), the GTP is removed from the binding buffer. Nonspecific binding was determined experimentally in the presence of 10^−4 M phentolamine. Unbound radioactivity was separated from membrane-bound radioactivity by filtration through Whatman GF/C filter paper. Filters are washed five times with 5 ml of cold HEM buffer containing 0.5 mMGTP (if added to the binding buffer but not if it was not added to the binding buffer). Bound radioactivity remaining on the filters was counted on an ICN gamma counter operating at 79.8% efficiency. Data are analyzed using Graphpad Prism.

[6] = target: T1, α1A-AR; assay: Effect of compound on binding affinity of norepinephrine, epinephrine or other ligands at α1A-AR; design: expressed in transfected cells; host or cells: Rat-1 fibroblast cells
Method: Competition binding assays: These compounds were characterized for their ligand binding properties at the α1-AR subtypes. The binding affinities of Compounds 1-10 were determined in a series of competition-binding experiments with the α1-AR-selective antagonist [^125I]HEAT as the radioligand. Assays were performed in duplicate in HEM buffer, in a total assay volume of 1000 μl. Radioligand binding assays are composed of 5 ug of membranes, harvested from Rat-1 fibroblast cells expressing only one of the alpha1-AR subtypes, HEM buffer containing GTP (composed of 20 mM HEPES, pH 7.4, 1.4 mM EGTA, 12.5 mM MgCl2, pH to 7.4), 0.5 mM GTP, 35-80 pM^125I-HEAT, and various doses of norepinephrine or epinephrine and incubated with shaking at 25° C. for 1-2 hours. The above conditions will convert all the conformations of the receptor into a single low affinity site. To show both high and low affinity sites of the receptor (typically seen with GPCR agonists), the GTP is removed from the binding buffer. Nonspecific binding was determined experimentally in the presence of 10^−4 M phentolamine. Unbound radioactivity was separated from membrane-bound radioactivity by filtration through Whatman GF/C filter paper. Filters are washed five times with 5 ml of cold HEM buffer containing 0.5 mMGTP (if added to the binding buffer but not if it was not added to the binding buffer). Bound radioactivity remaining on the filters was counted on an ICN gamma counter operating at 79.8% efficiency. Data are analyzed using Graphpad Prism.
To determine the effects of compounds 1-10 on the binding affinity of norepinephrine or epinephrine, the competition binding assay was repeated as above with one dose of each individual compound (i.e. 10^−5M) added to each concentration point. Data are normalized to the norepinephrine or epinephrine binding curve alone without the addition of the compound to measure its effect on binding.

With CC(C)Cc1c(OCC2=NCCN2)cccc1N(C)S(C)(=O)=O [Compound 3, N-[3-(4,5-Dihydro-1H-imidazol-2-ylmethoxy)-2-isobutyl-phenyl]-N-methyl-methanesulfonamide] the “interaction with α2-ARs” value [1] was “does not interact with high affinity”, the “body weight vs untreated” value [2] was “increased body weight; also recorded: retained or gained body weight” and the “time to find the escape hole, day 5 memory test” value ([3]; AD mice, approached significance) was “decreased the time to find the escape hole”. For the same compound, the “finding the correct escape hole (number of head pokes)” value ([3]; female AD mice, day 5 probe) was “increase the ability of female AD mice to find the correct escape hole”, the “latency to the escape hole during training period” value ([3]; male AD mice, 5 day training) was “significantly decrease the latency” and the “death rates between groups” value [4] was “no differences in the death rates”. For the same compound, the “binding behaviour against radiolabeled antagonist 125I-HEAT (full inhibition; competitive or allosteric)” value [5] was “cannot fully inhibit”, the Ki ([5]; 0.5 mM GTP in binding buffer, competition with 125I-HEAT, read-out: affinity for the α1A-AR) was roughly 100 nM and the Ki ([5]; GTP removed from binding buffer, read-out: high affinity site) was 0.001 nM. For the same compound, the “effect on binding affinity of epinephrine at the α1A-AR” value ([6]; 10^−5M (highest dose tested)) was “no effect” and the “effect on binding affinity of norepinephrine at the α1A-AR” value ([6]; fixed dose of compound, 10^−5M to 10^−9M) was “increasing the affinity of norepinephrine in a dose-specific manner”.
